Values after ≈ are worked out from the molar mass of the structure shown.
Tests used:
[1] = Determination of solubility in PBS buffer pH 6.5; conditions: PBS buffer pH 6.5, 1% DMSO, room temperature; for Solubility: 24 h; for solubility at 24 h: PBS buffer, pH 6.5, aqueous buffer, kinetic from dmso stock
Protocol: The test substance is dissolved in DMSO. An aliquot is taken from this solution and introduced into PBS buffer pH 6.5 (DMSO content: 1%). This solution/suspension is agitated at room temperature for 24 h. After ultracentrifugation at 114000 g for 30 min, the supernatant is removed, diluted with acetonitrile/water 8:2 and analysed by LC-MSMS. Quantification is effected by means of a five-point calibration curve of the test compound in DMSO.

[2] = target: T1, human macrophage elastase (HME/hMMP-12) (Homo sapiens, UniProt P39900); assay: In vitro HME inhibition test (standard or high-sensitivity); type: biochemical; conditions: standard or high-sensitivity HME inhibition test; read-out: HME/hMMP-12 IC50
T1 construct: 0.5 nM HME; purchased R&D Systems 917-MP
Protocol: The potency of the compounds according to the invention with respect to HME (MMP-12) is determined in an in vitro inhibition test. The HME-mediated amidolytic cleavage of a suitable peptide substrate leads to an increase in fluorescent light therein. The signal intensity of the fluorescent light is directly proportional to the enzyme activity. The active concentration of a test compound at which half the enzyme is inhibited (50% signal intensity of the fluorescent light) is reported as the IC50 value.
In a 384 hole microtiter plate, in a total test volume of 41 μl, the test buffer (0.1 M HEPES pH 7.4, 0.15 M NaCl, 0.03 M CaCl2, 0.004 mM ZnCl2, 0.02 M EDTA, 0.005% Brij®), the enzyme (0.5 nM HME; from R&D Systems, 917-MP, autocatalytic activation according to the manufacturer's instructions) and the intramolecularly quenched substrate [5 μM Mca-Pro-Leu-Gly-Leu-Glu-Glu-Ala-Dap(Dnp)-NH2; Bachem, M-2670] are incubated in the absence and presence of the test substance (as a solution in DMSO) at 37° C. for two hours. The fluorescence intensity of the test mixtures is measured (excitation […], emission 393 nm). The IC50 values are ascertained by plotting the fluorescent light intensity against the active ingredient concentration.
In this case, an enzyme concentration ten times lower is used (final concentration, for example, 0.05 nM) in order to achieve an elevated test sensitivity. The incubation period chosen for the test is correspondingly longer (for example 16 hours).

rat hepatocytes = assay: Hepatocyte assay for determination of metabolic stability; conditions: after incubation with rat hepatocytes
Protocol: Seven samples from the incubation solution are taken for the LC-MS analysis within a fixed time pattern, in order to determine the half-life (i.e. the degradation) of the particular compound. This half life is used to calculate various “Clearance” parameters (CL) and “Fmax” values (see below).
The CL and Fmax values are a measure of the phase 1 and phase 2 metabolism of the compounds in the hepatocytes. In order to minimize the influence of the organic solvent on the enzymes in the incubation batches, the concentration thereof is generally limited to 1% (acetonitrile) or 0.1% (DMSO).
For all species and breeds, a hepatocyte cell count in the liver of 1.1*10^8 cells/g of liver is expected.
The parameters calculated and the meanings thereof are: • Fmax well-stirred [%] maximum possible bioavailability after oral administration • Calculation: (1-CLblood well-stirred/QH)*100 • CLblood well-stirred [L/(h*kg)] calculated blood clearance (well-stirred model) • Calculation: (QH*CLintrinsic)/(QH+CL′intrinsic) • CL′intrinsic[ml/(min*kg)] maximum ability of the liver (of the hepatocytes) to metabolize a compound (assuming that the liver blood flow is not rate-limiting) • Calculation: CLintrinsic, apparent* species-specific hepatocyte count [1.1* 10^8/g liver]*species-specific liver weight [g/kg] • CL′intrinsic, apparent[ml/(min*mg)] normalizes the elimination constant by dividing it by the hepatocyte cell count x used (x*10^6/ml) • Calculation: kcl[1/min]/(cell count [x*10^6]/incubation volume [ml]) • (QH=species-specific liver blood flow).

T1 sequence (P39900 106-470): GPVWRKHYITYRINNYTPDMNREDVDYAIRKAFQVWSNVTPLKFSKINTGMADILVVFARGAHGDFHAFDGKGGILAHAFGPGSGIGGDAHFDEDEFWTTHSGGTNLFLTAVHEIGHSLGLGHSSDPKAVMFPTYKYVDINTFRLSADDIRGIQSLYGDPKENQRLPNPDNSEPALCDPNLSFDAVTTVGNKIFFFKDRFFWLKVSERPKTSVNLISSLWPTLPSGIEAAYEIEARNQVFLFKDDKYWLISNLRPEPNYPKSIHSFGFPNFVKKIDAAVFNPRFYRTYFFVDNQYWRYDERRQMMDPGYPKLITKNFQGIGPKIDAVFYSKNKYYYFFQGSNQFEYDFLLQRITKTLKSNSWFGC

**Q.** Which Solubility [1] does the source give for `O=C(O)[C@@H]1[C@@H](Cn2nnc3ccccc3c2=O)CC[C@H]1C(=O)c1ccc(OCCC2CCOCC2)cc1` (stereo in doubt) [Example 6, (−)-(1RS,2SR,5RS)-2-[(4-Oxo-1,2,3-benzotriazin-3(4H)-yl)methyl]-5-{4-[2-(tetrahydro-2H-pyran-4-yl)ethoxy]benzoyl}cyclopentanecarboxylic acid] here?
**A.** The Solubility was 354.9 µg/mL (≈ 702 µM).

**Q.** And the IC50 [2]?
**A.** Its IC50 is 80 nM.

**Q.** With `O=C(O)[C@H]1[C@H](Cn2nnc3ccc(C(F)(F)F)cc3c2=O)CC[C@@H]1C(=O)c1ccc(SCC2CCOCC2)cc1` (racemic) [Example 13, (+/−)-(1RS,2SR,5RS)-2-{[4-Oxo-6-(trifluoromethyl)-1,2,3-benzotriazin-3 (4H)-yl]methyl}-5-{4-[(tetrahydro-2H-pyran-4-ylmethyl)sulphanyl]benzoyl}cyclopentanecarboxylic acid] as the molecule, how does the IC50 [2] read?
**A.** The IC50 was 0.48 nM.

**Q.** With `O=C(O)[C@@H]1[C@@H](Cn2nnc3ccc(C(F)(F)F)cc3c2=O)CC[C@H]1C(=O)c1ccc(OCCC2CCOCC2)cc1` (racemic) [Example 11, (+)-(1RS,2SR,5RS)-2-{[4-Oxo-6-(trifluoromethyl)-1,2,3-benzotriazin-3(4H)-yl]methyl}-5-{4-[2-(tetrahydro-2H-pyran-4-yl)ethoxy]benzoyl}cyclopentanecarboxylic acid] as the molecule, how does the “CLblood (calculated blood clearance, well-stirred)” value (rat hepatocytes) read?
**A.** Its value is 5 mL/min/kg.

**Q.** What about the “Fmax (maximum possible bioavailability after oral administration, well-stirred)” value (“Fmax” for short) (rat hepatocytes) of the same molecule?
**A.** The value was 92.9%.

**Q.** Which Solubility [1] does the source give for `O=C(O)[C@@H]1[C@@H](Cn2nnc3ccc(C(F)(F)F)cc3c2=O)CC[C@H]1C(=O)c1ccc(OCCC2CCOCC2)cc1` (stereo in doubt) [Example 12, (−)-(1RS,2SR,5RS)-2-{[4-Oxo-6-(trifluoromethyl)-1,2,3-benzotriazin-3(4H)-yl]methyl}-5-{4-[2-(tetrahydro-2H-pyran-4-yl)ethoxy]benzoyl}cyclopentanecarboxylic acid] here?
**A.** The Solubility was 240 µg/mL (≈ 418 µM).

**Q.** And the IC50 [2]?
**A.** Its IC50 is 90 nM.

**Q.** Which IC50 [2] does the source give for `Cc1ccc2nnn(C[C@@H]3CC[C@H](C(=O)c4ccc(OCC5CCOCC5)cc4)[C@H]3C(=O)O)c(=O)c2c1` (racemic) [Example 16, (+/−)-(1RS,2SR,5RS)-2-[(6-Methyl-4-oxo-1,2,3-benzotriazin-3(4H)-yl)methyl]-5-[4-(tetrahydro-2H-pyran-4-ylmethoxy)benzoyl]cyclopentanecarboxylic acid] here?
**A.** The IC50 was 0.17 nM.

**Q.** For `Cc1ccc2nnn(C[C@H]3CC[C@@H](C(=O)c4ccc(OCCC5CCOCC5)cc4)[C@@H]3C(=O)O)c(=O)c2c1` (racemic) [Example 20, (+)-(1RS,2SR,5RS)-2-[(6-Methyl-4-oxo-1,2,3-benzotriazin-3(4H)-yl)methyl]-5-{4-[2-(tetrahydro-2H-pyran-4-yl)ethoxy]benzoyl}cyclopentanecarboxylic acid], which “CLblood (calculated blood clearance, well-stirred)” value (rat hepatocytes) is on record?
**A.** The value was 12.8 mL/min/kg.

**Q.** What about the “Fmax” value (rat hepatocytes) of the same molecule?
**A.** Its value is 81.8%.

**Q.** Which results are given for `Cc1ccc2nnn(C[C@H]3CC[C@@H](C(=O)c4ccc(OCC5CCOCC5)cc4)[C@@H]3C(=O)O)c(=O)c2c1` (single isomer, unassigned) [Example 17, (+)-(1RS,2SR,5RS)-2-[(6-Methyl-4-oxo-1,2,3-benzotriazin-3(4H)-yl)methyl]-5-[4-(tetrahydro-2H-pyran-4-ylmethoxy)benzoyl]cyclopentanecarboxylic acid]?
**A.** solubility at 24 h [1]: 250 µg/mL (≈ 494 µM); IC50 [2]: 0.03 nM

**Q.** With `O=C(O)[C@@H]1[C@@H](Cn2nnc3ccc(C(F)(F)F)cc3c2=O)CC[C@H]1C(=O)c1ccc(SCC2CCOCC2)cc1` (single isomer, unassigned) [Example 14, (−)-(1RS,2SR,5RS)-2-{[4-Oxo-6-(trifluoromethyl)-1,2,3-benzotriazin-3(4H)-yl]methyl}-5-{4-[(tetrahydro-2H-pyran-4-ylmethyl)sulphanyl]benzoyl}cyclopentanecarboxylic acid] as the molecule, how does the solubility at 24 h [1] read?
**A.** The solubility at 24 h was 80 µg/mL (≈ 139 µM).

**Q.** What about the IC50 [2] of the same molecule?
**A.** The IC50 was 10 nM.

**Q.** With “(−)-(1RS,2SR,5RS)-2-{[4-Oxo-6-(trifluoromethyl)-1,2,3-benzotriazin-3(4H)-yl]methyl}-5-[4-(tetra-hydro-2H-pyran-4-ylmethoxy)benzoyl]cyclopentanecarboxylic acid [Example 9]” as the molecule, how does the IC50 [2] read?
**A.** Its IC50 is 42 nM.

**Q.** Which IC50 [2] does the source give for `Cc1ccc2nnn(C[C@H]3CC[C@@H](C(=O)c4ccc(OCCC5CCOCC5)cc4)[C@@H]3C(=O)O)c(=O)c2c1` (single isomer, unassigned) [Example 21, (−)-(1RS,2SR,5RS)-2-[(6-Methyl-4-oxo-1,2,3-benzotriazin-3(4H)-yl)methyl]-5-{4-[2-(tetrahydro-2H-pyran-4-yl)ethoxy]benzoyl}cyclopentanecarboxylic acid] here?
**A.** The IC50 was 78 nM.

**Q.** For `O=C(O)[C@@H]1[C@@H](Cn2nnc3ccc(C(F)(F)F)cc3c2=O)CC[C@H]1C(=O)c1ccc(SCC2CCOCC2)cc1` (racemic) [Example 15, (+)-(1RS,2SR,5RS)-2-{[4-Oxo-6-(trifluoromethyl)-1,2,3-benzotriazin-3(4H)-yl]methyl}-5-{4-[(tetrahydro-2H-pyran-4-ylmethyl)sulphanyl]benzoyl}cyclopentanecarboxylic acid], which Solubility [1] is on record?
**A.** The Solubility was 100 µg/mL (≈ 174 µM).

**Q.** And the “CLblood (calculated blood clearance, well-stirred)” value (rat hepatocytes)?
**A.** The value was 2.67 mL/min/kg.

**Q.** What about the “Fmax” value (rat hepatocytes) of the same molecule?
**A.** The value was 96.1%.

**Q.** With `Cc1ccc2nnn(C[C@H]3CC[C@@H](C(=O)c4ccc(OCC5CCOCC5)cc4)[C@@H]3C(=O)O)c(=O)c2c1` (single isomer, unassigned) [Example 18, (−)-(1RS,2SR,5RS)-2-[(6-Methyl-4-oxo-1,2,3-benzotriazin-3(4H)-yl)methyl]-5-[4-(tetrahydro-2H-pyran-4-ylmethoxy)benzoyl]cyclopentanecarboxylic acid] as the molecule, how does the IC50 [2] read?
**A.** Its IC50 is 3.3 nM.

**Q.** Which Solubility [1] does the source give for `Cc1ccc2nnn(C[C@H]3CC[C@@H](C(=O)c4ccc(OCC5CCOCC5)cc4)[C@@H]3C(=O)O)c(=O)c2c1` (racemic) [Example 18, (−)-(1RS,2SR,5RS)-2-[(6-Methyl-4-oxo-1,2,3-benzotriazin-3(4H)-yl)methyl]-5-[4-(tetrahydro-2H-pyran-4-ylmethoxy)benzoyl]cyclopentanecarboxylic acid] here?
**A.** Its Solubility is 330 µg/mL (≈ 653 µM).

**Q.** What does the source list for `O=C(O)[C@@H]1[C@@H](Cn2nnc3ccccc3c2=O)CC[C@H]1C(=O)c1ccc(OCCC2CCOCC2)cc1` (racemic) [Example 5, (+)-(1RS,2SR,5RS)-2-[(4-Oxo-1,2,3-benzotriazin-3(4H)-yl)methyl]-5-{4-[2-(tetrahydro-2H-pyran-4-yl)ethoxy]benzoyl}cyclopentanecarboxylic acid]?
**A.** CLblood (calculated blood clearance, well-stirred) (rat hepatocytes): 14.5 mL/min/kg; Fmax (maximum possible bioavailability after oral administration, well-stirred) (rat hepatocytes): 79.2%
